# ChEMBL document CHEMBL3272150, “Studies on antianaphylactic agents. 5. Synthesis of 3-(1H-tetrazol-5-yl)chromones, a new series of antiallergic substances” (J Med Chem, 1977)
# Active and inactive are the calls of the source. The calls are words filed in the database; no cut-off is given here.
# Key:
# Rattus norvegicus [1] = assay: Antiallergic activity in iv dosed Sprague-Dawley rat assessed as inhibition of egg albumin-induced passive cutaneous anaphylaxis administered immediately prior to egg albumin challenge measured after 30 mins by Evan blue dye leakage assay relative to disodium cromoglycate; type: functional
# [2] = Dissociation constant, pKa of the compound; type: physicochemical
# Rattus norvegicus [3] = assay: Antiallergic activity in Sprague-Dawley rat assessed as inhibition of egg albumin-induced passive cutaneous anaphylaxis up to 20 mg/kg, iv administered immediately prior to egg albumin challenge measured after 30 mins by Evan blue dye leakage assay; type: functional, organism-based; set-up: dose 20 mg/kg
# Rattus norvegicus [4] = assay: Antiallergic activity in po dosed Sprague-Dawley rat assessed as inhibition of egg albumin-induced passive cutaneous anaphylaxis administered 5 mins prior to egg albumin challenge measured after 30 mins by Evan blue dye leakage assay; type: functional; settings: read-out: ID50 (the source's name)
Structure (SMILES),fold change (FC) (Rattus norvegicus [1]),other results
O=c1c(/C=C/c2nnn[nH]2)coc2ccccc12,0.3,–
N#Cc1coc2ccccc2c1=O,–,pKa [2]: 5.85
CCCCCCc1ccc2occ(-c3nnn[nH]3)c(=O)c2c1,0.6,–
CCOC(=O)c1ccc2occ(-c3nnn[nH]3)c(=O)c2c1,2.9,–
CC(C)(C)n1nnc(-c2coc3ccccc3c2=O)n1,–,inhibition (Rattus norvegicus [3]): inactive
CN(C)c1ccc2occ(-c3nnn[nH]3)c(=O)c2c1,2.3,–
O=c1c(-c2nnn[nH]2)coc2ccc(C3CCCCC3)cc12,0.5,–
COc1ccc2occ(-c3nnn[nH]3)c(=O)c2c1,2.2,ED50 (Rattus norvegicus [4]): 7 mg/kg
O=c1c(-c2nnn[nH]2)coc2ccc([N+](=O)[O-])cc12,4,–
Cc1oc2ccccc2c(=O)c1-c1nnn[nH]1,0.1,–
O=c1c(CCc2nnn[nH]2)coc2ccccc12,0.07,–
Cc1cc(C)c2occ(-c3nnn[nH]3)c(=O)c2c1,11.6,ED50 (Rattus norvegicus [4]): 1.25 mg/kg
O=c1c(-c2nnn[nH]2)coc2ccc3ccccc3c12,5,ED50 (Rattus norvegicus [4]): 8.5 mg/kg
O=c1c(-c2nnn[nH]2)coc2ccc(Cl)cc12,4,–
CCc1ccc2occ(-c3nnn[nH]3)c(=O)c2c1,4,ED50 (Rattus norvegicus [4]): 6.9 mg/kg
O=c1c(-c2nnn[nH]2)coc2ccccc12,3.5,ED50 (Rattus norvegicus [4]): 5.3 mg/kg

Structure (SMILES),fold change (FC) (Rattus norvegicus [1]),other results
CCCCc1ccc2occ(/C=C/c3nnn[nH]3)c(=O)c2c1,0.07,–
CCCCc1ccc2occ(-c3nnn[nH]3)c(=O)c2c1,1.8,–
Cc1nnc(-c2coc3ccccc3c2=O)o1,–,inhibition (Rattus norvegicus [3]): inactive
O=c1c(-c2nnn[nH]2)coc2cc(O)ccc12,1.1,–
O=C([O-])c1cc(=O)c2c(OCC(O)COc3cccc4oc(C(=O)[O-])cc(=O)c34)cccc2o1.[Na+].[Na+] [CROMOLYN SODIUM],–,ED50 (Rattus norvegicus [4]): > 100 mg/kg
O=c1c(-c2nnn[nH]2)coc2c1ccc1ccccc12,8.3,ED50 (Rattus norvegicus [4]): 7.4 mg/kg
CCCCOc1ccc2c(=O)c(-c3nnn[nH]3)coc2c1,0.9,–
O=c1c(-c2nnn[nH]2)coc2cc(O)c(O)cc12,1.8,–
CC(C)c1ccc2occ(-c3nnn[nH]3)c(=O)c2c1,3.4,ED50 (Rattus norvegicus [4]): 17 mg/kg
O=c1c(-c2nnn[nH]2)coc2ccc(O)cc12,4.5,–
CCCc1ccc2occ(-c3nnn[nH]3)c(=O)c2c1,3.4,–
Cc1oc2ccccc2c(=O)c1Cc1nnn[nH]1,–,inhibition (Rattus norvegicus [3]): inactive
Cc1ccc2occ(-c3nnn[nH]3)c(=O)c2c1,2.4,ED50 (Rattus norvegicus [4]): 10 mg/kg
O=C(Cc1nnn[nH]1)c1ccccc1O,0.35,–
O=C(O)c1coc2ccccc2c1=O,–,pKa [2]: 8.85
O=c1cc(-c2nnn[nH]2)oc2ccccc12,1.4,–
